Test results: patent publication US20230414583A1, “LYSERGIC ACID DERIVATIVES WITH MODIFIED LSD-LIKE ACTION” (Mind Medicine, Inc., priority 2022, published 2023)

Key:
[1] = Microsomal assays: stability in pooled human liver microsomes, LC-MS/MS; assay type: in vitro ADME; conditions: 10 nM; for microsomal metabolism compared with LSD: incubations over 4 hours
Source text: Given its fast metabolism, it is likely not active orally but is a candidate for intravenous administration in particular as an infusion and expected to then produce short-lasting or also maintained effects that can rapidly be terminated upon stopping the infusion. […] However, it is important to note that in addition to the metabolic profile, other factors such as 5-HT2A receptor activity are important to consider when choosing promising drug candidates for therapeutic applications. In addition, in vivo experiments are necessary further assessing the clinical pharmacokinetics of these substances.
Microsomal assays: The objective of this experiment was the investigation of the microsomal stability of 10 novel lysergamides (FIGS. 13A-13J) in order to make predictions about whether any of the derivatives may be clinically faster metabolized than lysergic acid diethylamide (LSD). The test substances were incubated with human liver microsomes for 4 hours and the metabolic degradation was then measured by liquid chromatography-tandem mass spectrometry (LC-MS/MS). In brief, LSD and the derivatives (10 nM) were incubated in the presence of pooled human liver microsomes for 4 hours. The microsomal reaction mixture contained 464.5 μL phosphate-buffered saline, 25 μL nicotinamide adenine dinucleotide phosphate (NADPH) solution A (1:20 dilution, #451220, lot: 0344003; Corning Life Sciences B.V) and 5 μL Solution B (1:100 dilution, #451200, lot: 0342002; Corning Life Sciences B.V), 5 μL liver microsomes (150 donors, 20 mg/mL, #452117, lot: 38296; Corning Life Sciences B.V., Amsterdam, The Netherlands), and 0.5 μL test drugs (10 μM). Samples (50 μL) were taken 2 minutes prior to microsomal incubation (t0) and 0.5, 1, 2, 3, and 4 hours after initiation of the microsomal reaction. A total of five assays were performed per substance. The amount of the test substances (peak area) exposed to human liver microsomes for 4 hours was compared relative to a concentration of 10 nM (t0, 100% peak area). Linear regression slopes were plotted to compare the degradation of the derivatives and LSD. None of the TRALA derivatives were metabolized to LSD (data not shown).

[2] = humans; psilocin: unconjugated, average; cited from earlier work
[3] = Chemical stability under basic and acidic conditions (HPLC MS); assay type: physicochemical
Experimental: General preparation and equipment information: NMR was performed on a Bruker NMR (^1H: 300 MHz and ^19F: 282 MHz) at ambient temperature. Reaction controls were performed by silica gel TLC (F254; UV detection) and HPLC UV & MS (Agilent 1100, UV at 210 nm and 313 nm, Waters SQD, ESI+ mode) under basic as well as acidic conditions (solvents: A: either 0.02% NH4OH in water or 0.05% TFA in water, B: acetonitrile, gradients from 5% to 95% B, reversed phase C18 HPLC column). All reactions, workups, drying steps, and storing were performed under exclusion of daylight and of electric light such as neon lighting or light bulbs containing wavelengths of the blue and/or UV spectrum. Working was performed in either light-excluding lab ware or under orange to red light (UV free LED). This helps to prevent decompositions of the compounds. Further on, reactions und some purifications can be performed under protecting gas such as Nitrogen or Argon to further protect the compounds from decompositions. Purifications were performed by using silica gel column chromatography and organic solvents such as mixtures of an alcohol (MeOH or EtOH) and dichloromethane, and in some cases, 0.1% to 1% of NH4OH 25% or 0.1% to 1% NEt3 was added. In a similar way, preparative TLC (silica gel) using the aforementioned solvents was applied as well. Working safety: a suitable personal protecting ware common to lab works and fume hoods with a movable glass window were used. Possible contaminations on e.g., gloves or surfaces can quickly be detected by having a long-wave UV lamp (e.g., 366 nm) at hands, preventing further distribution of active materials. Typically, compounds bearing an intact lysergic acid amide substructure, show a strong blueish fluorescence even in trace amounts. Quick deactivation of the potential central effects of these compounds can be performed by using, e.g., a mixture of bleach and diluted alcohol.
9,10-Didehydro-N-ethenyl-N-ethyl-6-methylergoline-8R-carboxamide (TRALA-12), 21. […]

[4] = test system: 5-HT2A; conditions: cited from earlier work
[5] = test system: LSD-trained rats; conditions: even at 20× of the full active dose of LSD; cited from earlier work
[6] = 5R,8S epimer; cited from earlier work

SMILES: C#CCN(CC)C(=O)[C@@H]1C=C2c3cccc4[nH]cc(c34)C[C@H]2N(CCF)C1 [Compound 16a, 9,10-Didehydro-N-ethyl-N-propyn-3-yl-6-(2-fluoroethyl)ergoline-8R-carboxamide]
- microsomal metabolism compared with LSD [1]: significantly faster metabolized than LSD

SMILES: CCN(CC)C(=O)[C@@H]1C=C2c3cccc4[nH]cc(c34)C[C@H]2N(C)C1 [LSD, 9,10-Didehydro-N,N-diethyl-6-methylergoline-8R-carboxamide]
- plasma half-life [2]: approximately 4 hours

SMILES: C#CCN(CC)C(=O)[C@@H]1C=C2c3cccc4[nH]cc(c34)C[C@H]2N(CC(=C)F)C1 [Compound 16b, 9,10-Didehydro-N-ethyl-N-propyn-3-yl-6-(2-fluoro-1-propen-3-yl)ergoline-8R-carboxamide]
- microsomal metabolism compared with LSD [1]: significantly faster metabolized than LSD

SMILES: C=CN(CC)C(=O)[C@@H]1C=C2c3cccc4[nH]cc(c34)C[C@H]2N(C)C1 [Compound 2l, 9,10-Didehydro-N-ethenyl-N-ethyl-6-methylergoline-8R-carboxamide]
- stability against basic or acidic HPLC MS conditions ([3]; 0.02% NH4OH in water or 0.05% TFA in water / acetonitrile): stability against these conditions
- time after which the majority of substance was metabolized [1]: 30 min
- microsomal metabolism compared with LSD [1]: significantly faster metabolized than LSD

SMILES: C=C(F)CN1C[C@H](C(=O)N(CC)CC)C=C2c3cccc4[nH]cc(c34)C[C@H]21 [Compound 12c, 9,10-Didehydro-N,N-diethyl-6-(2-fluoro-1-propen-3-yl)ergoline-8R-carboxamide]
- microsomal metabolism compared with LSD [1]: significantly faster metabolized than LSD

SMILES: CCN(C=C(F)F)C(=O)[C@@H]1C=C2c3cccc4[nH]cc(c34)C[C@H]2N(C)C1 [Compound 2m, 9,10-Didehydro-N-(2,2-difluoroethenyl)-N-ethyl-6-methylergoline-8R-carboxamide]
- chemical stability, basic conditions ([3]; hydrolyzed sample stored at ambient temperature overnight): remained intact
- chemical stability, acidic conditions ([3]; hydrolyzed sample with excess tartaric acid, stored for 24h): the same product distribution as after initial hydrolysis of the reaction

SMILES: CCN(CC)C(=O)[C@@H]1C=C2c3cccc4[nH]cc(c34)C[C@H]2NC1 [6-Nor-LSD, 9,10-Didehydro-N,N-diethylergoline-8R-carboxamide]
- binding to 5-HT2A in more recent binding assays ([4]; Luethi et al., 2019): high-potency binding to 5-HT2A
- loss of 5-HT2A binding affinity on N6-demethylation of LSD ([4]; relative to LSD (Hoffmann, 1987)): 30 factor
- ability to substitute in LSD-trained rats [5]: loss of its 5-HT2A binding affinity (factor 30) and the ability to substitute in LSD-trained rats

SMILES: CCN(CC)C(=O)[C@H]1C=C2c3cccc4[nH]cc(c34)C[C@H]2N(C)C1 [iso-LSD]
- psychoactivity in humans [6]: inactive up to several milligrams
